The test system of test [1] is 3T3-L1 cells. Description: Adiponectin secretion amount in 3T3-L1 medium supernatant by ELISA. The format is cell-based, mouse. The note with it: medium 7 days after differentiation induction, non-treatment control 4.27 ± 0.32, average ± standard error. The method, then:
Next, culture preadipocytes 3T3-L1 were thawed, inoculated in a 100 mm dish and cultured until 3T3-L1 cells reached about 80% confluence. A single dish of 3T3-L1 that had reached about 80% confluence was subcultured to a single 6-well plate and further cultured until the 3T3-L1 cells reached confluence in the 6-well plate, and then the medium was replaced with the differentiation induction medium, followed by differentiation induction. 48 hours later, the medium was replaced with the differentiation promotion medium, and thereafter, the medium was replaced with the differentiation promotion medium every two days. 7 days after the initiation of the differentiation induction, mRNA was extracted using Sepasol-RNA I Super (trade name; manufactured by Nacalai Tesque, Inc.), and the mRNA expression amounts of 36B4, aP2 and adiponectin, which were indicators of an early period of adipocyte differentiation, were measured using Light Cycler (TM). Also, the medium 7 days after the differentiation induction was taken in an amount of 1 mL from each well, and the amount of adiponectin in the medium supernatant was measured using a mouse/rat adiponectin ELISA kit (manufactured by Otsuka Pharmaceutical Co., Ltd.). […]
Only the strips of the antibody plates necessary for the analysis were taken out. […] Incidentally, the standard solutions always were measured for each measurement and each plate. […]

Test [2] deals with HepG2 cells (human hepatic cells). Description: VLDL secretion inhibition experiment in HepG2 cells (apoB100 ELISA). It is filed as cell-based. The following applies: 30 hours, measurement group/control group, DMSO control = 100, average ± standard error. The method, then:
A sandwich ELISA that recognized human apoB100 in the VLDL as an antigen was used. First, 100 μL of Moab×LDL Apolipoprotein B (ApoB) (manufactured under MONOSAN®) was dispensed in each well of ELISA PLATE, and the plate was sealed with a sterile seal and then allowed to stand still at 4° C. overnight. In the following, all the dispensing mentioned is for a single well. On the next day, 200 μL of Zepto Block (trade name, manufactured by ZeptoMetrix Corporation) was dispensed, and then the above-noted plate was sealed and allowed to stand still for 2 hours at room temperature for blocking. Subsequently, 100 μL of the medium and the VLDL standard solution were dispensed, and then the plate was sealed and allowed to stand still for 1 hour at room temperature. Washing with 200 μL of PBST and absorption using an aspirator were carried out five times in total. Then, 100 μL of Affinity Purified Anti-Apolipoprotein B (manufactured by Rockland Immunochemicals, Inc.) that had been diluted with PBS by 1000 times was dispensed and allowed to stand still for 1 hour at room temperature. After washing similarly to the above, 100 μL of Donkey Anti-goat IgG HRP (manufactured by Promega Corporation) that had been diluted with PBS by 5000 times was dispensed and allowed to stand still for 1 hour at room temperature. […] 100 μL of 1M phosphoric acid solution was added to the above-noted mixture solution, and the absorbance at 450 nm was measured using wallac ARVOsx (trade name, PerkinElmer Life Sciences, PerkinElmer, Inc.). […]
HepG2 was cultured to 80% to 90% confluence in a 100 mm/Collagen-Coated Dish (trade name, manufactured by Iwaki Glass Works, Co.). […] Using this collected medium, the number of living cells were counted, and the Western blotting and the ELISA measurement were carried out similarly to the above. From the result of the ELISA, the ratio of the VLDL secretion amount between the measurement group and the non-treated control group (measurement group/control group) was calculated for each sample.
(In general: In an ELISA, binding on a coated surface is turned into a signal by an enzyme label.)

Take `CC(C)=CCC/C(C)=C/COc1c2ccoc2cc2oc(=O)ccc12` [Bergamottin, bergamottin]: the values for the Adiponectin secretion amount in test [1] (1 μM) and in test [1] (5 μM) were 4.37 ± 0.12 and 8.14 ± 0.36, respectively. Besides, the “VLDL secretion ratio (%)” value in test [2] (10 μM) was found to be 63.4 ± 10.94%; in test [2] (20 μM) it was 65.5 ± 13.21%; in test [2] (50 μM) it was 45.9 ± 6.29%.

The values are drawn from US8257755B2, “Metabolic syndrome-improving agent and medicine, supplement, functional food and food additive containing the same” (ARKRAY, Inc., priority 2005, dated 2012).
